Tests used:
Surinam grass = test: Test F preemergence test; format: in vivo, Brachiaria decumbens; conditions: scale 0 to 100
In short: (§1)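 Visual ratings relative to controls, taken after 14 to 21 days in a greenhouse. Test chemicals, formulated in a surfactant-containing non-phytotoxic solvent mixture, were applied preemergence to sown seeds or postemergence to sugarcane plants.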

crabgrass = test: Test A pre-/postemergence greenhouse test; format: in vivo, Digitaria sanguinalis; conditions: for Crabgrass, Large plant response rating: 0 to 100 scale
In short: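 Planting was into mixed loam soil and sand; preemergence treatment followed as a directed soil spray. Concurrently, emerged plants (one- to two-leaf, 2–10 cm) received postemergence applications of identically formulated compound (non-phytotoxic solvent, surfactant). After approximately ten days under greenhouse conditions, injury was judged by eye against untreated plants.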

large crabgrass = test: Test F preemergence test; format: in vivo, Digitaria sanguinalis; conditions: scale 0 to 100
In short: as §1

downy brome = test: Test C pre-/postemergence test; format: in vivo, Bromus tectorum
In short: (§2)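 Compounds in a non-phytotoxic solvent with surfactant applied preemergence to seeded pots and, at the same time, postemergence to plants 2–18 cm tall (1- to 4-leaf stage). Paddy tests: pots flooded to 3 cm, compound applied into the water, depth held throughout.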

itchgrass = test: Test F preemergence test; format: in vivo, Rottboellia cochinchinensis; conditions: scale 0 to 100
In short: as §1

green foxtail = test: Test F preemergence test; format: in vivo, Setaria viridis; conditions: scale 0 to 100
In short: as §1

common ragweed = test: Test F preemergence test; format: in vivo, Ambrosia elation; conditions: scale 0 to 100
In short: as §1

johnsongrass = test: Test F preemergence test; format: in vivo, Sorghum halepense; conditions: scale 0 to 100
In short: as §1

Italian ryegrass = test: Test F preemergence test; format: in vivo, Lolium multiflorum; conditions: scale 0 to 100
In short: as §1

field bindweed = test: Test F preemergence test; format: in vivo, Convolvulus arvensis; conditions: scale 0 to 100
In short: as §1

southern sandbur = test: Test F preemergence test; format: in vivo, Cenchrus echinatus; conditions: scale 0 to 100
In short: as §1

catchweed bedstraw = test: Test C pre-/postemergence test; format: in vivo, Galium aparine; conditions: Preemergence
In short: as §2

goosegrass = test: Test F preemergence test; format: in vivo, Eleusine indica; conditions: scale 0 to 100
In short: as §1

Cn1nc(C(F)(F)F)c(CS(=O)(=O)c2cccc[n+]2[O-])c1OCC(F)(F)F [Compound 29]
15: Plant response rating, Crabgrass, Large (large crabgrass; Preemergence, 16 g ai/ha)
30: Plant response rating, Itchgrass (itchgrass; Preemergence, 31 g ai/ha)
0: Plant response rating, Bromegrass, Downy (downy brome; Preemergence, 31 g ai/ha, scale 0 to 100 (0 no effect, 100 complete control)) | Plant response rating, Itchgrass (itchgrass; Preemergence, 16 g ai/ha) | Plant response rating, Ragweed (common ragweed; Preemergence, 16 g ai/ha) | Field Bindweed plant response rating (field bindweed; 62 g ai/ha, Preemergence) | Field Bindweed plant response rating (field bindweed; 125 g ai/ha, preemergence) | Plant response rating, Field Bindweed (field bindweed; Preemergence, 16 g ai/ha) | Plant response rating, Field Bindweed (field bindweed; Preemergence, 31 g ai/ha)
65: Plant response rating, Ryegrass, Italian (Italian ryegrass; Preemergence, 16 g ai/ha) | Plant response rating, Goosegrass (goosegrass; Preemergence, 16 g ai/ha)
100: Surinam Grass plant response rating (Surinam grass; 62 g ai/ha, Preemergence) | Surinam Grass plant response rating (Surinam grass; 125 g ai/ha, preemergence) | Plant response rating, Crabgrass, Large (crabgrass; Preemergence, 500 g ai/ha, 0 to 100 scale where 0 is no effect and 100 is complete control) | Crabgrass, Large plant response rating (large crabgrass; 125 g ai/ha, preemergence) | Foxtail, Green plant response rating (green foxtail; 62 g ai/ha, Preemergence) | Foxtail, Green plant response rating (green foxtail; 125 g ai/ha, preemergence) | Johnsongrass plant response rating (johnsongrass; 62 g ai/ha, Preemergence) | Johnsongrass plant response rating (johnsongrass; 125 g ai/ha, preemergence) | Plant response rating, Johnsongrass (johnsongrass; Preemergence, 31 g ai/ha) | Ryegrass, Italian plant response rating (Italian ryegrass; 62 g ai/ha, Preemergence) | Ryegrass, Italian plant response rating (Italian ryegrass; 125 g ai/ha, preemergence) | Plant response rating, Ryegrass, Italian (Italian ryegrass; Preemergence, 31 g ai/ha) | Sandbur plant response rating (southern sandbur; 62 g ai/ha, Preemergence) | Sandbur plant response rating (southern sandbur; 125 g ai/ha, preemergence) | Plant response rating, Sandbur (southern sandbur; Preemergence, 31 g ai/ha) | Galium plant response rating (catchweed bedstraw; 62 g ai/ha, scale 0 to 100) | Plant response rating, Galium (catchweed bedstraw; 31 g ai/ha, scale 0 to 100 (0 no effect, 100 complete control)) | Plant response rating (0 to 100), Galium (catchweed bedstraw; 250 g ai/ha) | Goosegrass plant response rating (goosegrass; 62 g ai/ha, Preemergence) | Goosegrass plant response rating (goosegrass; 125 g ai/ha, preemergence) | Plant response rating, Goosegrass (goosegrass; Preemergence, 31 g ai/ha)
20: Bromegrass, Downy plant response rating (downy brome; 62 g ai/ha, Preemergence, scale 0 to 100)
80: Crabgrass, Large plant response rating (crabgrass; Postemergence, 125 g ai/ha, 0 is no effect, 100 is complete control) | Ragweed plant response rating (common ragweed; 125 g ai/ha, preemergence)
90: Crabgrass, Large plant response rating (crabgrass; Postemergence, 500 g ai/ha, 0 is no effect, 100 is complete control) | Crabgrass, Large plant response rating (crabgrass; Preemergence, 125 g ai/ha, 0 no effect, 100 complete control)
40: Plant response rating, Ragweed (common ragweed; Preemergence, 31 g ai/ha)
70: Ragweed plant response rating (common ragweed; 62 g ai/ha, Preemergence) | Plant response rating, Johnsongrass (johnsongrass; Preemergence, 16 g ai/ha)
95: Crabgrass, Large plant response rating (large crabgrass; 62 g ai/ha, Preemergence) | Plant response rating, Crabgrass, Large (large crabgrass; Preemergence, 31 g ai/ha) | Itchgrass plant response rating (itchgrass; 125 g ai/ha, preemergence)
60: Plant response rating (0 to 100), Bromegrass, Downy (downy brome; Preemergence, 250 g ai/ha) | Bromegrass, Downy plant response rating (downy brome; preemergence, 125 g ai/ha, scale 0 (no effect) to 100 (complete control))
25: Plant response rating, Foxtail, Green (green foxtail; Preemergence, 16 g ai/ha)
75: Plant response rating, Surinam Grass (Surinam grass; Preemergence, 31 g ai/ha) | Itchgrass plant response rating (itchgrass; 62 g ai/ha, Preemergence) | Plant response rating, Foxtail, Green (green foxtail; Preemergence, 31 g ai/ha)
